Experimental findings from patent publication US20060100226A1, “2-Thiopyrimidinones as therapeutic agents” (priority 2004, published 2006) are described below.

pIC50: −log10 of the molar value. Where only a bound is given, the exact number is not on record here.

This assay concerns the target T1, murine MEKK2 (mMEKK2) (Mus musculus, UniProt Q61083).
T1 sequence (Q61083 1-619): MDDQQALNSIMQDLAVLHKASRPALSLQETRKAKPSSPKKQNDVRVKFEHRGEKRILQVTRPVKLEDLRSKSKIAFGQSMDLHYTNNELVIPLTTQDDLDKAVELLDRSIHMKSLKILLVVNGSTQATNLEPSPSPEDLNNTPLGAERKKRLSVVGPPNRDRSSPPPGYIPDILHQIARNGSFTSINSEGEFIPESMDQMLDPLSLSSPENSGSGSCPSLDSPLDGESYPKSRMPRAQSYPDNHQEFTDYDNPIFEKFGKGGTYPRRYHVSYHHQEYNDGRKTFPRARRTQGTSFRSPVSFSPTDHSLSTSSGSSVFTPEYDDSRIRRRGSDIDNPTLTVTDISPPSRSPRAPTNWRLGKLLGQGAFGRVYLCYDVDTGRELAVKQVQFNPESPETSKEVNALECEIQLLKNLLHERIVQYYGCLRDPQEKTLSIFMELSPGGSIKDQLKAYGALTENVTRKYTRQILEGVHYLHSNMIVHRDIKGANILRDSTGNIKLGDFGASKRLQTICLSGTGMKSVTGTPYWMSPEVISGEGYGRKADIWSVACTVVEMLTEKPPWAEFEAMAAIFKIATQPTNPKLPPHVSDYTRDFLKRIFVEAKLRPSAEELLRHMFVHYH
As to the kind of experiment: TR-FRET kinase assay (mMEKK2/MBP). Conditions: substrate biotin MBP, 60 minutes at room temperature. The class given is biochemical. As for the experimental part:
In one approach, MEKK2 inhibitory activity of compounds of the invention can be assessed using the time-resolved Fluorescence Resonance Energy Transfer (TR-FRET) assay detailed in Example 5. In this assay, the excitation energy of one fluorescent molecule (the donor) is transferred by a resonance mechanism to a nearby second fluorescent molecule (the acceptor), which then releases its fluorescent energy through fluorescent emission. This fluorescent energy is measured using a time-resolved fluorescence measurement protocol (LANCE high count 615/665); excitation occurred with 1,000 flashes at 325 nm, measurement was delayed by 100 μs, and data were acquired for 50 μs at 615 and 665 nm.
A TR-FRET kinase assay was used to screen potential inhibitors of MEKK2. The assay was performed as follows: Compounds to be tested were weighed and solubilized in DMSO (Sigma) to a stock concentration of 10 mM. Serial dilutions starting from 1 mM were prepared with additional DMSO. These dilutions were further diluted to 250 μM in kinase reaction buffer [20 mM Hepes pH 7.5, 5 mM MgCl2, 1 mM DTT (Dithiothreitol-Sigma), 1 mM NaVO4 (sodium vanadate-Sigma). A 25 μl aliquot of this solution was transferred to a black 96-well nonbinding surface microplate (Fisher). A stock aliquot containing […] of murine MEKK2 (mMEKK2) was diluted in the kinase reaction buffer and incubated with the compounds on the microplate for 10 minutes. A 25 μl aliquot of a 138 ng solution of biotin MBP (myelin basic protein—Upstate Biotechnology) was added to the reaction followed by 25 ul of a 25 ng solution of anti-phospho MBP antibody (Upstate Biotechnology) diluted in kinase reaction buffer. Finally an aliquot (50 μl) of a 5 uM solution of ATP (adenosine triphosphate) was added and the reaction was allowed to proceed for 60 minutes at room temperature. The reaction was stopped by the addition of 50 μL of a 12.5 ng solution of europium labeled anti-mouse IgG (Perkin Elmer) and 45 ng of Cy5 labeled streptavidin (Jackson Immunoresearch) in termination buffer (20 mM Hepes pH 7.5, 100 mM EDTA; Sigma). The assay was allowed to equilibrate for 45 minutes before placing the plate on the Victor™ plate reader. The plate was read using the 615/665 LANCE protocol.
In turn, `COc1cccc(-c2nc(SCc3cccc(NCc4ccc(-c5cccs5)s4)c3)[nH]c(=O)c2C#N)c1` [Example 1aa] showed a pIC50 of more than 6.00.
In the case of `COc1cccc(-c2nc(SCc3cccc(NCc4cccc(Oc5ccccc5)c4)c3)[nH]c(=O)c2C#N)c1` [Example 1bb] it was more than 6.00; in that of `COc1cccc(-c2nc(SCc3cccc(NCc4cccc(Oc5cccc(C(F)(F)F)c5)c4)c3)[nH]c(=O)c2C#N)c1` [Example 1dd], more than 6.00; in that of `COc1cc(CNc2cccc(CSc3nc(-c4cccc(OC)c4)c(C#N)c(=O)[nH]3)c2)cc(OC)c1` [Example 1e], more than 4.70.
The compound `COc1cccc(-c2nc(SCc3cccc(NCc4coc5cc(C)cc(C)c5c4=O)c3)[nH]c(=O)c2C#N)c1` [Example 1f] gave a pIC50 of more than 5.30.
Consider `COc1cccc(-c2nc(SCc3cccc(NCc4nc5ccccc5n4C)c3)[nH]c(=O)c2C#N)c1` [Example 1g], for which the pIC50 was more than 4.40.
With `COc1cccc(-c2nc(SCc3cccc(NCc4ccccc4N4CCOCC4)c3)[nH]c(=O)c2C#N)c1` [Example 1h], the pIC50 was more than 5.30.
For `COc1cccc(-c2nc(SCc3cccc(NCc4ccc(N5CCCCC5)cc4)c3)[nH]c(=O)c2C#N)c1` [Example 1i], the pIC50 is more than 5.00.
Turning to `COc1cccc(-c2nc(SCc3cccc(NC[C@H]4CCCN4C(=O)OC(C)(C)C)c3)[nH]c(=O)c2C#N)c1` [Example 1j], the pIC50 was more than 4.70.
Take `COc1cccc(-c2nc(SCc3cccc(NCc4cccn4CCC#N)c3)[nH]c(=O)c2C#N)c1` [Example 1l]: the pIC50 was more than 4.70.
As to `COc1cccc(-c2nc(SCc3cccc(NCc4ccc(Oc5cnccn5)cc4)c3)[nH]c(=O)c2C#N)c1` [Example 1m], the pIC50 is more than 4.70.
In the case of `COc1cccc(-c2nc(SCc3cccc(NCc4ccc(OC)nc4)c3)[nH]c(=O)c2C#N)c1` [Example 1n], the pIC50 was more than 4.40.
As to `COc1cccc(-c2nc(SCc3cccc(NCC4CCOCC4)c3)[nH]c(=O)c2C#N)c1` [Example 1o], the pIC50 was less than 4.40.
For the compound `COc1cccc(-c2nc(SCc3cccc(NCc4ccc(-c5cc(C(F)(F)F)n(C)n5)s4)c3)[nH]c(=O)c2C#N)c1` [Example 1q], the pIC50 is more than 6.00.
With `COc1cccc(-c2nc(SCc3cccc(NCc4ccc(-n5ccnc5)cc4)c3)[nH]c(=O)c2C#N)c1` [Example 1r], the pIC50 is more than 4.70.
In the case of `COc1cccc(-c2nc(SCc3cccc(NCc4c(C(F)(F)F)nn(C)c4Cl)c3)[nH]c(=O)c2C#N)c1` [Example 1s] it was more than 5.00; in that of `COc1cccc(-c2nc(SCc3cccc(NCc4ccc(N(C)C)c(C#N)c4F)c3)[nH]c(=O)c2C#N)c1` [Example 1t], more than 5.30; in that of `COc1cccc(-c2nc(SCc3cccc(NCc4ccc(C#N)cc4)c3)[nH]c(=O)c2C#N)c1` [Example 1u], more than 5.00.
As to `COc1cccc(-c2nc(SCc3cccc(NCc4cc(C)c(C)o4)c3)[nH]c(=O)c2C#N)c1` [Example 1w], the pIC50 was more than 5.30.
`COc1cccc(-c2nc(SCc3cccc(NCc4c[nH]c5ccc(Cl)cc45)c3)[nH]c(=O)c2C#N)c1` [Example 1x]: the pIC50 was more than 6.00.
Compound `COc1cccc(-c2nc(SCc3cccc(NCc4ccc5nsnc5c4)c3)[nH]c(=O)c2C#N)c1` [Example 1y] showed a pIC50 of more than 5.00.
For `COc1cccc(-c2nc(SCc3cccc(NCc4cnc(N(C)C)nc4)c3)[nH]c(=O)c2C#N)c1` [Example 1z], the pIC50 is more than 4.40.
In turn, `COc1cccc(-c2nc(SCc3cccc(NC(=O)c4cccc(Cl)c4)c3)[nH]c(=O)c2C#N)c1` [Example 2a, 3-Chloro-N-{3-[5-cyano-4-(3-methoxy-phenyl)-6-oxo-1,6-dihydro-pyrimidin-2-ylsulfanylmethyl]-phenyl}-benzamide] gave a pIC50 of more than 5.30.
`COc1cccc(-c2nc(SCc3ccc(NC(=O)c4sccc4Cl)cc3)[nH]c(=O)c2C#N)c1` [Example 2aaa] had a pIC50 of more than 5.30.
`COc1cccc(-c2nc(SCc3cccc(NC(=O)c4ccc(C)cc4)c3)[nH]c(=O)c2C#N)c1` [Example 2b] had a pIC50 of more than 5.30.
`CCCc1c(C(=O)Nc2ccc(CSc3nc(-c4cccc(OC)c4)c(C#N)c(=O)[nH]3)cc2)cnn1-c1ccc(Cl)cc1` [Example 2bbb] had a pIC50 of more than 6.00.
Next, `COc1cccc(-c2nc(SCc3cccc(NC(=O)c4ccccc4)c3)[nH]c(=O)c2C#N)c1` [Example 2c]: more than 5.30; `COc1cccc(-c2nc(SCc3cccc(NC(=O)c4ccc5ccccc5c4)c3)[nH]c(=O)c2C#N)c1` [Example 2d]: more than 5.30; `COc1cccc(-c2nc(SCc3ccc(NC(=O)c4cccc(OC(F)(F)F)c4)cc3)[nH]c(=O)c2C#N)c1` [Example 2ddd]: more than 5.30.
Regarding `COc1cccc(-c2nc(SCc3cccc(NC(=O)CCc4ccccc4)c3)[nH]c(=O)c2C#N)c1` [Example 2e], the pIC50 is more than 5.30.
Take `COc1cccc(-c2nc(SCc3ccc(NC(=O)c4cc(C(F)(F)F)cc(Cl)c4F)cc3)[nH]c(=O)c2C#N)c1` [Example 2eee]: the pIC50 was more than 5.30.
`COc1cccc(CC(=O)Nc2cccc(CSc3nc(-c4cccc(OC)c4)c(C#N)c(=O)[nH]3)c2)c1` [Example 2f]: the pIC50 was more than 5.00.
`COc1cccc(-c2nc(SCc3ccc(NC(=O)c4cnn(-c5ccccc5)c4C(F)(F)F)cc3)[nH]c(=O)c2C#N)c1` [Example 2fff] gave a pIC50 of more than 5.30.
As to `COc1cccc(-c2nc(SCc3cccc(NC(=O)c4cccc(C(F)(F)F)c4)c3)[nH]c(=O)c2C#N)c1` [Example 2g], the pIC50 is more than 5.30.
`COc1cccc(-c2nc(SCc3ccc(NC(=O)c4ccc(C(F)(F)F)cc4C(F)(F)F)cc3)[nH]c(=O)c2C#N)c1` [Example 2ggg] showed a negative-log IC50 (pIC50) of more than 5.30.
In the case of `COc1cccc(-c2nc(SCc3ccc(NC(=O)c4snnc4C)cc3)[nH]c(=O)c2C#N)c1` [Example 2hhh] it was more than 4.40.
`COc1cccc(-c2nc(SCc3ccc(NC(=O)C4=Cc5cc(Cl)ccc5OC4)cc3)[nH]c(=O)c2C#N)c1` [Example 2iii] had a pIC50 of more than 5.30.
`COc1cccc(-c2nc(SCc3cccc(NC(=O)COc4ccc(Cl)cc4)c3)[nH]c(=O)c2C#N)c1` [Example 2j] gave a pIC50 of more than 5.30.
Next, `COc1cccc(-c2nc(SCc3ccc(NC(=O)C4CCN(C(C)=O)CC4)cc3)[nH]c(=O)c2C#N)c1` [Example 2jjj]: more than 4.70.
In turn, `COc1cccc(-c2nc(SCc3cccc(NC(=O)Cc4ccccc4)c3)[nH]c(=O)c2C#N)c1` [Example 2k] had a pIC50 of more than 5.00.
In the case of `COc1cccc(-c2nc(SCc3ccc(NC(=O)c4cc(C(F)(F)F)cc(C(F)(F)F)c4)cc3)[nH]c(=O)c2C#N)c1` [Example 2kkk] it was more than 5.30.
In the case of `COc1cccc(-c2nc(SCc3cccc(NC(=O)Cc4ccc(Cl)cc4)c3)[nH]c(=O)c2C#N)c1` [Example 2l] it was more than 5.30.
Next, `COc1cccc(-c2nc(SCc3ccc(NC(=O)c4ccc(-c5ccccn5)s4)cc3)[nH]c(=O)c2C#N)c1` [Example 2lll]: more than 5.30.
Regarding `COc1cccc(-c2nc(SCc3cccc(NC(=O)c4cc5ccccc5s4)c3)[nH]c(=O)c2C#N)c1` [Example 2m], the pIC50 was more than 5.30.
`COc1cccc(-c2nc(SCc3ccccc3NC(=O)Cc3ccccc3)[nH]c(=O)c2C#N)c1` [Example 2mmm] gave a pIC50 of more than 4.40.
Take `COc1cccc(-c2nc(SCc3ccccc3NC(=O)c3ccccc3)[nH]c(=O)c2C#N)c1` [Example 2nnn]: the pIC50 was more than 4.40.
Take `COc1cccc(-c2nc(SCc3cccc(NC(=O)c4ccc5c(c4)OCO5)c3)[nH]c(=O)c2C#N)c1` [Example 2o]: the pIC50 was more than 5.30.
Compound `COc1cccc(-c2nc(SCc3ccccc3NC(=O)c3cccc(C(F)(F)F)c3)[nH]c(=O)c2C#N)c1` [Example 2ooo] gave a pIC50 of less than 4.40.

By pIC50 is commonly meant the IC50 on a negative log10 scale, so that one unit is a factor of ten. A higher pIC50 goes with a small IC50.
